Legend:
EMT6 cells = assay: mGI-101 and Paclitaxel in EMT6 allotransplanted tumor model; assay type: in vivo, BALB/c mice
Method: EMT6 cells were purchased from ATCC (USA) and cultured in Waymouth MB 751/1 medium (WELGENE) containing 10% FBS (Gibco) and 1% antibiotic/antifungal agent (Gibco). The cultured cells were harvested using trypsin (Gibco), and then a high-concentration cell suspension (2×10^6 cells/0.4 mL) for 10 mice was prepare with PBS and stored on ice until injected into mice. In order to establish an allotransplanted tumor model, the skin was incised slightly away from the 4th nipple position from the upper right of the ventral region of BALB/c female mice (7-week-old), and the location of mammary fat pad at the incised site was identified, and then EMT6 cell line prepared inside the mammary fat pad was injected at 2×10^5 cells/40 uL/head.
A certain period of time after cell inoculation of the tumor grafts of the mice, the tumor volume was measured for animals with no abnormalities in the health condition of the animals, and the subjects were selected so that the average of each group reached less than 70-100 mm^3, and the selected animals were assigned as evenly as possible based on tumor volume and body weight, each group including 10 animals. As shown in Table 24 and FIG. 106, the test groups were configured and the test substances were administered.
Clinical symptoms such as a disease and a behavioral change were observed once a day during the test period, and deceased animals were identified, and the mice were sacrificed when the tumor size reached a size of 4,000 mm^3.
The tumor volume before administration of each subject was set as the value measured at the time of grouping, and the anti-tumor efficacy was evaluated as compared with the vehicle control.
All statistical calculations were performed using Prism 8.0 (Graph Pad Software Inc, USA). The comparison of tumor volume measurements was made through two-way analysis of variance followed by Tukey's multiple comparison test. A p value of less than 0.05 was considered significant.

Human CTLA-4 = biological target: T1, Human CTLA-4 (Homo sapiens, UniProt P16410); assay: Binding ability to CTLA-4 (Octet RED 384)
T1 construct: purchased Sino Biological 11159-H08H
T1 sequence (P16410 36-223): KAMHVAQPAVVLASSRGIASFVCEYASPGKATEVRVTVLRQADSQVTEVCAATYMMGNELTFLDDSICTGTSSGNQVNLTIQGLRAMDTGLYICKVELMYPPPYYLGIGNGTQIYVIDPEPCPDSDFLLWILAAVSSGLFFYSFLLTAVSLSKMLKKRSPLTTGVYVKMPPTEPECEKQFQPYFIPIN
Method: In order to identify the binding affinity between the fusion protein and its ligand, the binding affinity was measured using Octet RED 384.
AR2G biosensor (Amine Reactive 2nd gen, ForteBio, Cat: 18-5092) was previously hydrated with 200 μl of distilled water in a 96-well microplate (GreinerBio-one, Cat: 655209). A ligand (CTLA-4, Human CTLA-4/CD152, His tag, Sino Biological, Cat: 11159-H08H) to be attached to the AR2G biosensor was diluted with 10 mM acetate buffer (pH 5, AR2G reagent Kit, ForteBio, Cat: 18-5095) to a concentration of 5 μg/ml. […] Activation buffer was prepared by mixing 20 mM EDC and 10 mM s-NHS (AR2G reagent Kit, ForteBio, Cat: 18-5095) in distilled water. 80 μl of each reagent was placed in a 384-well microplate (GreinerBio-one, Cat: 781209) and the program was set up.
Binding kinetics measurements were performed using the Octet RED 384 instrument (ForteBio, Pall Life Science) with agitation at 30° C. and 1,000 rpm. The binding ability for CTLA-4 was measured using the Amine Reactive 2 generation (AR2G) biosensor chip, and the binding ability for PD-L1 was measured using the Nickel charged Tris-NTA (Ni-NTA) biosensor chip. The AR2G biosensor chip was activated with a combination of 400 mM EDC and 100 mM sulfo-NHS. […]

HCT116 cells = assay: Cancer cell killing, GI-101 and Cetuximab, HCT116 with NK cells; assay type: cell-based, human; conditions: GI-101 100 nM, Cetuximab 68.6 nM, 24 hours
Text: HCT116 cells were purchased from the Korea cell line bank and cultured in McCoy's 5A medium (ATCC) containing 10% FBS (Gibco) and 1% antibiotic/antifungal agent (Gibco). For use in cancer cell killing test, the cells were harvested using trypsin (Gibco), and then suspended in McCoy's 5A medium, and then dead cells and debris were removed using Ficoll (GE Healthcare Life Sciences) solution. The cells suspended in McCoy's 5A medium were carefully layered on ficoll solution. The cell layer with a low specific gravity formed by centrifuging at room temperature at 350×g for 20 minutes was collected with a pipette, washed with PBS (Gibco), and then centrifuged at room temperature at 350×g for 5 minutes. The separated cell layer was made into a suspension of 2×10^5 cells/mL with FBS-free RPMI1640 medium. […]
In order to identify the effect of killing the cells, a CytoTox Green reagent ([…] ™ CytoTox Green, Satorius) that binds to the DNA of cells to be killed was prepared in 1 μl per 1 mL of RPMI1640 medium containing 5% human AB serum (Sigma). The prepared medium was used for dilution of the test substance, and the effect of killing the cells could be quantitatively identified by staining the cells to be killed when the test substance was co-cultured with cancer cell lines and PBMCs. […]

binding ability for CTLA-4 (Human CTLA-4) | Substance | number of mice with tumor growth inhibition rate of 30% or more (EMT6 cells; EMT6, 10 animals per group) [mice] | number of mice with tumor growth inhibition rate of 50% or more (EMT6 cells; EMT6, 10 animals per group) [mice] | number of mice with tumor growth inhibition rate of 80% or more (EMT6 cells; EMT6, 10 animals per group) [mice] | tumor size level vs control (EMT6 cells; day 11, mGI-101 3 mg/kg i.v. QW, Paclitaxel 10 mg/kg i.p. 7 consecutive days) | mice with complete remission (EMT6 cells; day 13, 10 animals per group) [mice] | tumor size vs control (EMT6 cells; day 13, mGI-101 3 mg/kg i.v. QW, Paclitaxel 10 mg/kg i.p. 7 consecutive days) | level of killing cancer cells (HCT116 cells)
– | mGI101: fusion protein: mouse CD80, Ig hinge, Fc domain, linker, IL-2 variant (2M) (R38A, F42A); SEQ ID NO: 15 | 6 | 5 | 5 | statistically significantly lower | 2 | statistically significantly lower | –
high binding ability | GI101: fusion protein: human CD80 fragment, Ig hinge, Fc domain, linker, IL-2 variant (2M) (R38A, F42A); SEQ ID NO: 9 | – | – | – | – | – | – | high level of killing cancer cells
